PMC6503114, “Application of Antimicrobial Peptides of the Innate Immune System in Combination With Conventional Antibiotics—A Novel Way to Combat Antibiotic Resistance?” (Frontiers in Cellular and Infection Microbiology, 2019)
≈ marks a conversion by molar mass, not a printed value. Read-outs that look alike come from different tables or passages of the source. Where no end group is shown, it is not given here.

Key:
MRSA ATCC 33591 = assay: microbe, parasite or virus in culture; type: cell-based, Staphylococcus aureus; details: median of 3–6 experiments, square brackets = twice the maximal tested concentration
Procedure: (§4) Prior to the “checkerboard” synergy test the minimal inhibitory concentrations (MIC) of individual substances were determined using broth microdilution assay. Testing was performed in 60-well polystyrene Terasaki microplates with V-shaped bottom generally according to the guidelines of the European Committee for Antimicrobial Susceptibility Testing with subtle modifications designed for AMP testing (Tossi et al., [1997]; Wiegand et al., [2008]). Cultivation of bacteria was carried out in 2.1% Müller-Hinton broth at 37°C with shaking. Two-fold serial dilutions of peptides, antibiotics and other antimicrobials were made with 10 mM sodium phosphate buffer, pH 7.4, containing 0.1% of BSA. The plates were preliminary incubated with 0.1% BSA for 1 h at 37°C to reduce a non-specific binding of peptides to the plates. After that BSA was removed, and serial dilutions were added into the plate wells in triplicates followed by the same volume of the suspension of bacterial cells in logarithmic phase of growth in concentration of 1 × 10^6 CFU/ml. After the 18 h overnight incubation at 37°C, the MIC value for each compound was determined as its lowest concentration completely inhibiting the visible growth of bacteria. The final results were calculated as median values based on 3–6 independent experiments.

E. coli ML-35p = assay: microbe, parasite or virus in culture; type: cell-based, Escherichia coli; details: median of 3–6 experiments, value in square brackets = twice the maximal tested concentration, read-out: MIC
Procedure: as §4

human erythrocytes = system: human erythrocytes
Procedure: To obtain erythrocytes, heparinized blood was centrifuged for 10 min at 300 g and 4°C. The supernatant liquid was removed, 10 ml of cooled PBS containing 4 mM of EDTA (pH 7.4) was added to the precipitate, and the mixture was centrifuged for 10 min under the same conditions. Then, red blood cells were washed three more times with cooled PBS. The sedimented red blood cells were used for the hemolytic test.
(§1) Here, [MEC A] and [MEC B] are the minimum effective concentrations (MEC) of substances A and B, when they are used alone. […] [A] and [B] are respective concentrations of substances A and B in their combination, where the same statistically significant difference is detected. A non-parametric Mann-Whitney U-test (p < 0.05 or p < 0.01) was used for the mentioned statistical comparison.
(§2) We have chosen the same intervals as that of FICI to determine synergy, additivity, independent action, and antagonism based on the minimal FECI values. However, in case of cytotoxic or hemolytic effect we were interested mainly in testing the possibility of additive or synergistic interaction itself, and not in assessing the exact magnitude of such interaction. Thus, in contrast to the “checkerboard titration” method used for combined antimicrobial activity investigation, studying the combined cytotoxic effect, we considered only two combinations of concentrations for the substances A and B in the mixture: • (½ MEC A + ½ MEC B), which, if found effective, provides the FECI value of 1 (the threshold value for additivity); • (¼ MEC A + ¼ MEC B), which, if found effective, provides the FECI value of 0.5 (the threshold value for synergetic interaction).
(§3) When action on tumor cells was tested in combination with antitumor antibiotic the lower concentrations up to ( 1/16 MEC A + 1/16 MEC B) as in checkerboard titration were additionally examined to assess the magnitude of synergistic effect more precisely. The final conclusion was made based on the three independent experiments.
Two hundred eighty microliters of erythrocyte precipitate obtained as described in section Eukaryotic Cells was added into the sterile 15 ml tube and its volume was adjusted to 10 ml with cooled PBS. Using 0.5 ml plastic tubes, 3 μl of the tested compound serially diluted in PBS or of the combination of two compounds were mixed with the 27 μl of the prepared erythrocyte suspension for each sample. For positive control (100% lysis of erythrocytes) 3 μl of the detergent (10% Triton X-100 solution in PBS) were added to the 27 μl of the erythrocyte suspension, and for negative control (0% lysis of erythrocytes) 3 μl of the PBS were used instead of any cell-damaging compound. […] After incubation, the hemolysis process was stopped by the addition of 75 μl of cooled PBS. The samples were centrifuged at 5,000 g and 4°C for 4 min. The optical density of the supernatants was measured at a wavelength of 540 nm using SpectraMax 250 Spectrophotometer (Molecular Devices, USA). The experiments were repeated three times. In each experiment all the test or control samples were made in triplicates. The percentage of hemolysis of erythrocytes was assessed by the following formula:
where ODsample, OD0%lysis, and OD100%lysis are values of the OD at 540 nm for the test sample, negative (0% lysis) control, and positive (100% lysis) control, respectively. However, due to the design of the study of combined action, described above in Combined Hemolytic or Cytotoxic Action, the obtained ODsample and OD0%lysis values were rather used to determine MECs and FECI by the Mann-Whitney U-test (p < 0.05, n1, n2 = 3).

Human PBMC = assay: MTT-test
Procedure: To obtain neutrophils and mononuclear cells, whole heparinized blood was diluted with sterile PBS in a 1:1 ratio and carefully inserted into the sterile polystyrene 50 ml tube upon the 5 ml of the sterile Ficoll-400 (Pharmacia, Sweden) with a density of 1.077. The tube was centrifuged at 600 g and 4°C for 40 min. After separation, the mononuclear “ring” located between the blood plasma and Ficoll was collected with a Pasteur pipette, transferred to another tube, and washed twice with 10 ml of sterile PBS by centrifugation for 10 min at 300 g and 4°C.
We calculated Fractional Effective Concentration Index (FECI), which could be seen as a particular case of the interaction index (I) proposed by Berenbaum ([1977]) or of the similar combination index (CI) proposed by Chou and Talalay ([1983]), according to the equation below: […]
as §1, §2, §3
Standard MTT-test (Mosmann, [1983]) was used for the examination of the cytotoxic activity of antimicrobial compounds and their combinations toward varied eukaryotic cells. Briefly, cell suspensions in RPMI-1640 prepared as described in Eukaryotic Cells were dispensed into the 96-well microplates (2 × 10^5 cells/well). Then, serial dilutions of AMPs, or other antibiotic compounds, or their mixtures in RPMI-1640 were added. In positive controls (100% cell survival) the according volume of RPMI-1640 without test substances was added instead. The final volume in each well was 100 μl. Negative controls (0% cell survival) were made with 100 μl of the sterile RPMI-1640. The plates were incubated at 37°C under 5% CO2 for 24 h. Four hours before the end of incubation, 10 μl of metabolic marker MTT−3-(4,5-dimethylthiazol-2-yl)-2,5-diphenyltetrazolium bromide (5 mg/ml, diluted in PBS) was added to each well. Incubation was stopped by adding 90 μl of isopropanol containing 0.04 M HCl. Content of the wells was thoroughly mixed, so that the formazan crystals, formed in case of the reduction of MTT in presence of actively metabolizing cells, were fully dissolved. The optical density of the samples was evaluated at 540 nm, subtracting the background absorbance at 690 nm, by SpectraMax 250 Spectrophotometer (Molecular Devices, USA). The experiments were repeated at least three times. In each experiment test samples were made in triplicates and control samples were made in hexaplicates.

[1] = Staphylococcus aureus, read-out: MIC
[2] = Human PBMC, normal cells, MTT, 24 h, square brackets = twice the maximal tested concentration

Compound | MIC (MRSA ATCC 33591; [1]) | MIC (E. coli ML-35p; Escherichia coli, ML35P) | MEC of hemolysis of human erythrocytes (human erythrocytes; human, 30 min) | MEC of cytotoxic action (Human PBMC; human, 24 h) | also measured
CNC(C)C1CCC(N)C(OC2C(N)CC(N)C(OC3OCC(C)(O)C(NC)C3O)C2O)O1 (centres unmarked) [Gentamicin] | 0.16 µM (≈ 0.0764 µg/mL) | 0.625 µM (≈ 0.299 µg/mL) | >50 [100] μM | >50 [100] μM | 
CC[C@H](C)[C@H](NC(=O)[C@H](CCCCN)NC(=O)[C@H](CCC(=O)O)NC(=O)[C@H](CCCCN)NC(=O)[C@H](CO)NC(=O)[C@H](CCCCN)NC(=O)[C@H](CCCNC(=N)N)NC(=O)[C@H](Cc1ccccc1)NC(=O)[C@H](Cc1ccccc1)NC(=O)[C@H](CC(=O)O)NC(=O)CNC(=O)[C@H](CC(C)C)NC(=O)[C@@H](N)CC(C)C)C(=O)NCC(=O)N[C@@H](CCCCN)C(=O)N[C@@H](CCC(=O)O)C(=O)N[C@@H](Cc1ccccc1)C(=O)N[C@@H](CCCCN)C(=O)N[C@@H](CCCNC(=N)N)C(=O)N[C@H](C(=O)N[C@H](C(=O)N[C@@H](CCC(N)=O)C(=O)N[C@@H](CCCNC(=N)N)C(=O)N[C@H](C(=O)N[C@@H](CCCCN)C(=O)N[C@@H](CC(=O)O)C(=O)N[C@@H](Cc1ccccc1)C(=O)N[C@@H](CC(C)C)C(=O)N[C@@H](CCCNC(=N)N)C(=O)N[C@@H](CC(N)=O)C(=O)N[C@@H](CC(C)C)C(=O)N[C@H](C(=O)N1CCC[C@H]1C(=O)N[C@@H](CCCNC(=N)N)C(=O)N[C@H](C(=O)N[C@@H](CCC(=O)O)C(=O)N[C@@H](CO)C(=O)O)[C@@H](C)O)C(C)C)[C@@H](C)CC)C(C)C)[C@@H](C)CC [LL-37] |  |  |  |  | MEC of hemolysis of human erythrocytes (human erythrocytes; 30 min, 37°C, no blood serum): 5.0 µM; MEC of cytotoxic action (Human PBMC; [2]): 12 µM
CC1COc2c(N3CCN(C)CC3)c(F)cc3c(=O)c(C(=O)O)cn1c23 (centres unmarked) [Ofloxacin] | 0.625 µM (≈ 0.226 µg/mL) | 0.125 µM (≈ 0.0452 µg/mL) | >50 [100] μM | >50 [100] μM | 
Cc1onc(-c2ccccc2)c1C(=O)N[C@@H]1C(=O)N2[C@@H]1SC(C)(C)[C@@H]2C(=O)O [Oxacillin] | 7.5 µM (≈ 3.01 µg/mL) | > 250 µM | 25 µM | >50 [100] μM | hemolytic action (in words) (human erythrocytes): slight hemolityc action
CO[C@H]1/C=C/O[C@@]2(C)Oc3c(C)c(O)c4c(O)c(c(/C=N/N5CCN(C)CC5)c(O)c4c3C2=O)NC(=O)/C(C)=C\C=C\[C@H](C)[C@H](O)[C@@H](C)[C@@H](O)[C@@H](C)[C@H](OC(C)=O)[C@@H]1C [Rifampicin] | 0.003 µM (≈ 0.00247 µg/mL) | 10 µM (≈ 8.23 µg/mL) | 20 µM | >20 [40] μM | hemolytic action (in words) (human erythrocytes): slight hemolityc action
Lysozyme: egg white lysozyme, antimicrobial protein, from BioChemica |  |  |  |  | MIC (MRSA ATCC 33591): >250 [500] μM; MEC of hemolysis of human erythrocytes (human erythrocytes): >50 [100] μM; MEC of cytotoxic action (Human PBMC): >50 [100] μM
Polymyxin B |  |  |  |  | MIC (MRSA ATCC 33591; read-out: MIC): 12.5 µM; MIC (E. coli ML-35p): 0.4 µM; MEC of hemolysis of human erythrocytes (human erythrocytes; 30 min, 37°C, no blood serum): >50 [100] μM; MEC of cytotoxic action (Human PBMC; [2]): 50 µM
RFRLPFRRPPIRIHPPPFYPPFRRFL-NH2 (C-terminus assumed) [ChBac3.4] |  |  |  |  | MEC of hemolysis of human erythrocytes (human erythrocytes): >50 [100] μM; MEC of cytotoxic action (Human PBMC): 20 µM
